The source of these data is patent publication US20230165252A1, “ACTIVE COMPOUND COMBINATIONS” (Bayer Aktiengesellschaft, priority 2020, published 2023).

Assay type in all cases: cell-based
One assay concerns Parastagonospora nodorum. Kind of assay: in vitro-Test with Parastagonospora nodorum (microtiter growth inhibition). The protocol: (§1) The degree of efficacy expressed in % is denoted: 0% means an efficacy, which corresponds to that of the control, while an efficacy of 100% means that no disease is observed.
(§2) If the actual fungicidal activity exceeds the calculated value, then the activity of the combination is super-additive, i.e. a synergistic effect exists. In this case, the efficacy, which was actually observed, must be greater than the value for the expected efficacy (E), that was calculated from the abovementioned formula.
(§3) Example: In Vitro-Test with Fungal Microorganisms
(§4) Wells of 96-well microtiter plates are filled with 10 μl of a preparation of test compound or compound combination in methanol+emulsifier alkylaryl-polyglycol-ether. Thereafter, the solvent is evaporated in a hood. At the next step, 100 μl of liquid potato dextrose medium is given into each well, that has been amended with an appropriate concentration of spores or mycelium suspension of the test fungus.
(§5) With the aid of a photometer, the extinction in all wells is measured at the wavelength of 620 nm.
(§6) The microtiter plates are incubated at 20° C. and 85% relative humidity. The inhibition of growth is determined again photometrically 3-5 days after the application. Efficacy is calculated in relation to the untreated control, 0% efficacy means fungal growth as high as in untreated control while 100% efficacy means no fungal growth is measured.

Assay [1] relates to Colletotrichum lindemuthianum. Kind of assay: in vitro-Test with Colletotrichum lindemuthianum (microtiter growth inhibition). The procedure:
as §1, §2, §3, §4, §5, §6

Another assay has as its system Botrytis cinerea. As to the kind of experiment: in vitro-Test with Botrytis cinerea (microtiter growth inhibition). As to conditions: for inhibition of growth at 0.04 ppm: single active at 0.04 ppm; for inhibition of growth at 0.2 ppm: single active at 0.2 ppm; for Efficacy: applied alone. Put shortly: (§7)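 Cpd/combination in MeOH + emulsifier into wells, solvent evaporated; liquid potato dextrose medium + spore/mycelium suspension added. OD 620 nm at t0; incubate 20° C./85% RH; OD 620 nm again at 3-5 d. % efficacy vs untreated control; combinations compared with expected efficacy (E) calculated by formula.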

The next assay deals with Fusarium culmorum. As to the kind of experiment: in vitro-Test with Fusarium culmorum (microtiter growth inhibition). As to conditions: Fusarium culmorum, read-out: Efficacy. The protocol:
as §1, §2, §3, §4, §5, §6

The subject of a further assay is Alternaria alternate. As to the kind of experiment: in vitro-Test with Alternaria alternate (microtiter growth inhibition). Summed up:
as §7

The subject of a further assay is Cordana musae. Kind of assay: in vitro-Test with Cordana musae (microtiter growth inhibition). As to conditions: Neocordana musae. Summed up: as §7
The test system of another assay is Diaporthe citri. Kind of assay: in vitro-Test with Diaporthe citri (microtiter growth inhibition). As to conditions: Diaporthe citri, read-out: Efficacy. Summed up: as §7
Another assay relates to Cercospora beticola. As to the kind of experiment: in vitro-Test with Cercospora beticola (microtiter growth inhibition). The conditions noted are these: Cercospora beticola. Summed up: as §7
Assay [2] relates to Ustilago segetum var. avenae. Kind of assay: in vitro-Test with Ustilago segetum var. avenae (microtiter growth inhibition). The conditions noted are these: read-out: Efficacy %. Put shortly:
as §7

The mark [3] stands for this setting: Botrytis cinerea, read-out: Efficacy %.
Where [4] appears, read: Parastagonospora nodorum, read-out: Efficacy %.
Where [5] appears, read: Colletotrichum lindemuthianum, read-out: Efficacy %.

Like-named read-outs stand apart in the source and are kept apart here.

For `OC(Cc1ccccc1Cl)(Cn1nc[nH]c1=S)C1(Cl)CC1` (centres unmarked) [(1.018) prothioconazole], the inhibition of growth at 0.008 ppm in the assay on Parastagonospora nodorum (Parastagonospora nodorum, compound alone, 0.008 ppm, read-out: Efficacy %) stood at 28%. Also, the inhibition of growth at 0.04 ppm turned out to be 91% with Parastagonospora nodorum (Parastagonospora nodorum, compound alone, 0.04 ppm, read-out: Efficacy %) and 63% with Botrytis cinerea (setting [3]). Besides, the inhibition of growth at 0.2 ppm in the assay on Parastagonospora nodorum (Parastagonospora nodorum, compound alone, 0.2 ppm, read-out: Efficacy %) was found to be 99%; in [1] (Colletotrichum lindemuthianum, applied alone at 0.2 ppm, read-out: Efficacy %), 73%; in the assay with Botrytis cinerea (setting [3]), 100%. In addition, in the assay with Parastagonospora nodorum (Parastagonospora nodorum, compound alone, 1.0 ppm, read-out: Efficacy %), the inhibition of growth at 1 ppm worked out at 100%. For the same compound, the Efficacy % with Parastagonospora nodorum (compound alone, 0.2 ppm) came to 99%.

`CON=C(C(=O)OC)c1ccccc1CON=C(C)c1cccc(C(F)(F)F)c1` [trifloxystrobin]: the Efficacy with Parastagonospora nodorum (0.008 ppm) is 38%; in the assay with Parastagonospora nodorum (0.04 ppm), 63%; in the assay with Parastagonospora nodorum (0.2 ppm), 78%; in the assay on Parastagonospora nodorum (1.0 ppm), 79%; with Alternaria alternate (applied alone, 0.008 ppm) it was 51%. Moreover, the inhibition of growth at 0.008 ppm was 0% with Fusarium culmorum (0.008 ppm); 56% in the assay on Alternaria alternate (Alternaria, 0.008 ppm, alone, read-out: Efficacy %); 29% with Cordana musae (single substance, 0.008 ppm, read-out: Efficacy); 82% in the assay on Diaporthe citri (applied alone, 0.008 ppm); 98% in the assay on Cercospora beticola (alone, 0.008 ppm, read-out: Efficacy %); 16% in assay [2] (single compound, 0.008 ppm). The inhibition of growth at 0.04 ppm with Fusarium culmorum is 0%; in the assay with Alternaria alternate (Alternaria, 0.04 ppm, alone, read-out: Efficacy %) it was 84%; in the assay on Alternaria alternate (Alternaria, applied alone, 0.04 ppm, read-out: Efficacy) it was 82%; in the assay with Diaporthe citri (applied alone, 0.04 ppm), 94%; in assay [2] (single compound, 0.04 ppm), 40%. Also, the inhibition of growth at 1 ppm in the assay on Fusarium culmorum worked out at 11%; in the assay on Alternaria alternate (Alternaria, 1.0 ppm, alone, read-out: Efficacy %), 98%; in the assay with Diaporthe citri (applied alone, 1.0 ppm), 98%. Further, the inhibition of growth at 0.2 ppm turned out to be 90% in the assay with Alternaria alternate (Alternaria, 0.2 ppm, alone, read-out: Efficacy %); 87% in the assay with Alternaria alternate (Alternaria, applied alone, 0.2 ppm, read-out: Efficacy); 66% with Cordana musae (single substance, 0.2 ppm, read-out: Efficacy); 97% with Diaporthe citri (applied alone, 0.2 ppm); 95% with Cercospora beticola (alone, 0.2 ppm, read-out: Efficacy %); 53% in assay [2] (single compound, 0.2 ppm).

Consider `CCN(C)C=Nc1cc(C)c(Oc2ccccc2F)cc1Cl` [Compound 15.064, N′-[2-chloro-4-(2-fluorophenoxy)-5-methylphenyl]-N-ethyl-N-methylimidoformamide], for which the inhibition of growth at 0.4 ppm in the assay on Fusarium culmorum is 0%; in the assay with Cordana musae (single substance, 0.4 ppm, read-out: Efficacy), 18%; in the assay with Diaporthe citri (applied alone, 0.4 ppm), 2%; in the assay with Cercospora beticola (alone, 0.4 ppm, read-out: Efficacy %), 0%; in [2] (compound alone) it was 0%; in assay [2] (single compound) it was 2%. For the same compound, the inhibition of growth at 2 ppm in the assay on Fusarium culmorum came out at 1%; in the assay with Cordana musae (single substance, 2 ppm, read-out: Efficacy), 14%; in the assay on Diaporthe citri (applied alone, 2 ppm) it was 5%; in [2] (compound alone), 41%; in assay [2] (single compound) it was 68%. Besides, the inhibition of growth at 10 ppm in the assay with Fusarium culmorum came to 9%; in the assay with Cordana musae (single substance, 10 ppm, read-out: Efficacy), 5%; in the assay on Cercospora beticola (alone, 10 ppm, read-out: Efficacy %), 14%; in assay [2] (compound alone), 100%; in assay [2] (single compound), 100%. The inhibition of growth at 0.04 ppm in the assay on Botrytis cinerea (setting [3]) came to 0%. Further, the inhibition of growth at 0.2 ppm in the assay with Botrytis cinerea (setting [3]) stood at 100%. For the same compound, the inhibition of growth at 1 ppm in the assay on Botrytis cinerea (Botrytis cinerea, single active at 1.0 ppm, read-out: Efficacy %) worked out at 100%. For the same compound, the inhibition of growth at 5 ppm in the assay with Botrytis cinerea (Botrytis cinerea, single active at 5.0 ppm, read-out: Efficacy %) turned out to be 100%. In addition, the Efficacy with Botrytis cinerea (0.080 ppm) is 0%; with Botrytis cinerea (0.4 ppm) it was 0%; in the assay with Botrytis cinerea (2 ppm), 31%. The inhibition of growth at 0.08 ppm in the assay on Cordana musae (single substance, 0.080 ppm, read-out: Efficacy) came out at 0%; in the assay with Diaporthe citri (applied alone, 0.080 ppm) it was 11%; with Cercospora beticola (alone, 0.08 ppm, read-out: Efficacy %), 0%; in assay [2] (single compound, 0.08 ppm), 1%.

For `N#Cc1c[nH]cc1-c1cccc2c1OC(F)(F)O2` [fludioxonil], the inhibition of growth at 0.04 ppm stood at 0% in the assay on Fusarium culmorum; 0% with Alternaria alternate (Alternaria, read-out: Efficacy %, 0.04 ppm, alone); 0% in the assay on Alternaria alternate (Alternaria, read-out: Efficacy, applied alone, 0.04 ppm); 12% in the assay with Diaporthe citri; 10% in [2]. Besides, in the assay with Fusarium culmorum (0.08 ppm), the inhibition of growth at 0.08 ppm worked out at 1%. In addition, the inhibition of growth at 0.2 ppm worked out at 0% in the assay with Fusarium culmorum (0.2 ppm); 0% in the assay on Alternaria alternate (Alternaria, read-out: Efficacy %, 0.2 ppm, alone); 0% with Alternaria alternate (Alternaria, read-out: Efficacy, applied alone, 0.2 ppm); 0% with Diaporthe citri; 60% in [2]. Also, the inhibition of growth at 0.4 ppm in the assay with Fusarium culmorum is 1%. Moreover, the inhibition of growth at 1 ppm worked out at 91% in the assay with Fusarium culmorum; 87% with Alternaria alternate (Alternaria, read-out: Efficacy %, 1.0 ppm, alone); 96% in the assay on Alternaria alternate (Alternaria, read-out: Efficacy, applied alone, 1.0 ppm); 20% in the assay with Cordana musae (read-out: Efficacy, single substance, 1.0 ppm); 45% with Diaporthe citri; 100% in assay [2]. Also, in the assay on Fusarium culmorum, the inhibition of growth at 2 ppm is 2%. Further, the inhibition of growth at 5 ppm was 100% in the assay with Fusarium culmorum (5.0 ppm); 100% with Alternaria alternate (Alternaria, read-out: Efficacy %, 5.0 ppm, alone); 100% in the assay on Alternaria alternate (Alternaria, read-out: Efficacy, applied alone, 5.0 ppm); 44% with Cordana musae (read-out: Efficacy, single substance, 5.0 ppm); 10% in the assay on Diaporthe citri; 95% with Cercospora beticola (read-out: Efficacy %, alone, 5.0 ppm). The inhibition of growth at 5 ppm in assay [2] came to 100%. Further, in the assay on Fusarium culmorum, the inhibition of growth at 10 ppm was 11%. The Efficacy stood at 12% with Botrytis cinerea (0.04 ppm), 99% in the assay with Botrytis cinerea (0.2 ppm), 100% with Botrytis cinerea (1.0 ppm) and 100% in the assay on Botrytis cinerea (5.0 ppm).

Take `N#Cc1ccccc1NC(=O)c1snc(Cl)c1Cl` [(6.002) isotianil]: the Efficacy % in [1] (applied alone at 0.8 ppm) was found to be 7%; in assay [1] (applied alone at 4 ppm) it was 19%; in assay [1] (applied alone at 20 ppm), 0%; in [1] (applied alone at 100 ppm), 17%; in the assay with Botrytis cinerea (single active at 4 ppm), 0%; in the assay on Botrytis cinerea (single active at 20 ppm), 0%. The Efficacy % with Botrytis cinerea (single active at 100 ppm) came out at 0%.

Consider `CCO[PH](=O)[O-].CCO[PH](=O)[O-].CCO[PH](=O)[O-].[Al+3]` [(15.012) fosetylaluminium], for which the Efficacy % in [1] (applied alone at 4 ppm) amounted to 0%; in [1] (applied alone at 20 ppm) it was 22%; in [1] (applied alone at 100 ppm) it was 70%.

As to `N#Cc1c[nH]cc1-c1cccc2c1OC(F)(F)O2` [(13.001) fludioxonil], in the assay on Parastagonospora nodorum (setting [4]), the inhibition of growth at 1 ppm was 34% and the inhibition of growth at 5 ppm stood at 75%. Moreover, in the assay with Parastagonospora nodorum (compound alone, 0.04 ppm), the Efficacy % was 0%. Also, the Efficacy % in the assay with Parastagonospora nodorum (compound alone, 0.2 ppm) was found to be 0%. In assay [1] (setting [5]), the inhibition of growth at 0.04 ppm was determined as 8%, the inhibition of growth at 0.2 ppm was 68%, the inhibition of growth at 1 ppm was found to be 81% and the inhibition of growth at 5 ppm is 44%. The Efficacy % in [1] (applied alone at 0.2 ppm) is listed as 60%.
